Experimental data reported in patent US7183385B2, “Phospho-specific antibodies to Flt3 and uses thereof” (Cell Signaling Technology, Inc., priority 2002, dated 2007).

Target: T1, constitutively active Flt3 in EOL-1 cells (Homo sapiens, UniProt P36888)
T1 construct: expresses an endogenous, constitutively active Flt3; endogenous in cells; host or cells: EOL-1 hematopoietic cell line
T1 sequence (P36888 27-993): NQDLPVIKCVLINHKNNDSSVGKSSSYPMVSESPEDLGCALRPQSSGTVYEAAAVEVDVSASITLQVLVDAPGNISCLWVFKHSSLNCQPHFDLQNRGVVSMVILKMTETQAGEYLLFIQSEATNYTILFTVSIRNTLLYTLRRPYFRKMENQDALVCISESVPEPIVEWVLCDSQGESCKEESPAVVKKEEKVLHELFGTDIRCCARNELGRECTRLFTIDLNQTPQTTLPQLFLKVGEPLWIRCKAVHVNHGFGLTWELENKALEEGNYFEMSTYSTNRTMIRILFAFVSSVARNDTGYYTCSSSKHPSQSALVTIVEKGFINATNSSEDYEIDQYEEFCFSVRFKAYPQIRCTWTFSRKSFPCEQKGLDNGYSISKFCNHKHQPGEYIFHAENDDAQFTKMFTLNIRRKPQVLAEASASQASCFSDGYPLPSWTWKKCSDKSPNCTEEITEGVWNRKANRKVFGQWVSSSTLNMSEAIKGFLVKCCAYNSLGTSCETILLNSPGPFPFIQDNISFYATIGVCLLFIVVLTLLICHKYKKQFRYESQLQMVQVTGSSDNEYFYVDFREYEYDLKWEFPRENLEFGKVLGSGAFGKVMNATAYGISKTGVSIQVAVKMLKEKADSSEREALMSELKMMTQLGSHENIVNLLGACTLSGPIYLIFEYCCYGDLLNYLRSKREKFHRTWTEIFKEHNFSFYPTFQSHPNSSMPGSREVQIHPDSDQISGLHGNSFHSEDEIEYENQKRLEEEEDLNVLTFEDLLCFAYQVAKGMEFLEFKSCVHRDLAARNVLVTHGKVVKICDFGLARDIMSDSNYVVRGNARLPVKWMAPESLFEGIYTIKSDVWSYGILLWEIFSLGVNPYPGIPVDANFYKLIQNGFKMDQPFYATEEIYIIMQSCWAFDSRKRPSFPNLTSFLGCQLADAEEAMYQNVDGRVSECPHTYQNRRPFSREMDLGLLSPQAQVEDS
Assay: Flt3 inhibitor effect on phospho-Flt3(Tyr591) staining in EOL-1 cells by flow cytometry
Format: cell-based
Details: serum-starved EOL-1 cells, inhibitor 4 hours at 37° C.; FIG. 6
Description: Flt3(Tyr591) phosphospecific monoclonal antibody CST #25-54 was used in flow cytometry to detect phospho-Flt3(Tyr591) in the EOL-1 hematopoietic cell line that expresses an endogenous, constitutively active Flt3. Serum-starved cells were incubated with or without the small molecule Flt3 inhibitor AG1296 for 4 hours at 37° C. The cells then were fixed with 2% paraformaldehyde for 10 minutes at 37° C. followed by cell permeabilization 90% with methanol for 30 minutes on ice. The fixed cells were then stained with the Alexa 488-conjugated Flt3 primary antibody for 1 hour at room temperature. The cells were then analyzed on a Beckman Coulter EPICS-XL flow cytometer.

COc1cc2ncc(-c3ccccc3)nc2cc1OC [AG1296]
Activity against Flt3 (in words): active against Flt3
Population of cells showing less staining with the phospho-Flt3(Tyr591) antibody in the presence of the drug: approximately 30 % of the total cells
